Results reported in a melting point compilation (Tetko et al.; mined from patent text by program, amines drawn as free bases though some values may be those of a salt).

melting point [°C] | Structure (SMILES)
146 to 147 | Cc1c(-c2ccccc2)sc2c(Cl)c(Cl)c(O)cc12
> 225 | CNC(=O)COc1cccc2c1S(=O)(=O)N=C2C1=C(O)C(C(C)(C)C)N(Cc2ccc(F)cc2)C1=O (configuration not stated)
210 to 211 | O=C(O)CNC(=O)c1nc(Cl)c2ccc(OCc3ccccc3)cc2c1O
126 to 128 | COc1ccc2c(c1)C(=NOCCN1CCCC1)c1c-2c(N2CCNCC2)nc2ccccc12
173 to 175 | COc1ccc(CNc2cc(-c3cc4cc(F)c(F)cc4[nH]3)ccc2OC)cc1
158 to 160 | CC(=O)c1ccc(OCCOc2ccc3ccccc3c2)c([N+](=O)[O-])c1
118 to 120 | COc1ccc(Cl)cc1C(=O)NCCc1ccc(CCC(=O)O)cc1
> 275 | CCOC(=O)Nc1nc(-c2ccccc2)c(-c2nc3ccccc3c(=O)n2-c2ccc(Cl)cc2)s1
157 to 158 | COC(=O)c1ccc(CN2CCN(c3nc(C)cs3)C2=O)cc1
122 to 124 | O=C(Cn1nccc1-c1ccc(Oc2ccc(F)cc2)cc1)N1CCOCC1
172 to 174 | Cc1ccc2cc(NC(=O)c3cccc(SCc4cc(Nc5ccccc5)n[nH]4)c3)ccc2n1
249 | COc1cc(OC)c(-c2nc(NC(=O)c3cc4ccccc4[nH]3)sc2C)cc1Cl
164 to 166 | O=C1[C@H]2CCCC[C@H]2Nc2ccccc2N1Cc1ccccc1 (relative stereo)
240 to 242 | CC(C)(Oc1ccc2c(c1)CC(NCc1ccccc1)CC2)C(=O)O (configuration not stated)
176 to 178 | Cc1c(NC(=O)c2ccc(-c3ccc(F)cc3)c(F)c2)ccc2cc(CN3CCCC3)cnc12
98 | CCCC[C@H](CN(C=O)OCc1ccccc1)C(=O)N1CCC[C@H]1C(=O)Nc1ccc(F)cn1
235 to 238 | Cc1ccc(C(=O)c2[nH]c3cc(Cl)ccc3c2CC(=O)O)nc1
150 | Cc1ccc(-n2nc(C(C)(C)C)cc2NC(=O)NCc2ccccc2Oc2ccnc(N3CCN(C)CC3)n2)cc1
202 | N#Cc1ncn2c(C(F)(F)F)cc(-c3ccccc3)nc12
128 to 130 | O=C(c1cccnc1Cl)N1CCN=C1Cc1ccccc1Cl

melting point [°C] | Structure (SMILES)
58 to 59 | CC(C)(C)OC(=O)NCC(C(=O)OCc1ccccc1)c1ccccc1 (configuration not stated)
101 to 102 | O=C(c1cc(C(F)(F)F)cc(C(F)(F)F)c1)N1CCN(C(=O)CN2CCC(O)(c3ccccc3)CC2)C(c2ccccc2)C1 (racemic)
93 to 94 | COC(=O)c1ccc(COc2cc(C(C)(C)C)nn2Cc2ccc(C(=O)OC)cc2)cc1
166 to 167 | CC(C)(C)c1ccc(Oc2nc(-c3ccc(Cl)cc3)c(CCC(=O)O)o2)cc1
167 to 170 | N=C(N)c1ccc2cc(OC(=O)C3CCC(CNC(=O)OCc4ccccc4)CC3)ccc2c1 (configuration not stated)
192 to 194 | COCCc1nc2c(N)nc3ccc(OCc4ccccc4)cc3c2n1C
108 to 110 | Cc1ccc(CN2C(=O)c3cccc4cccc2c34)cc1
160 | CC1(C)c2ccccc2-c2[nH]c3ccccc3c21
255 to 257 | COc1ccc(C=CC(=O)Nc2cc(Cl)ccc2C(=O)O)cc1OC
203 to 204 | O=C(Nc1cccc2c(-n3c(-c4cccnc4)nc4ccccc43)ccnc12)c1c(Cl)cccc1Cl
105 to 108 | COC(=O)C[C@]1(C)C[C@@H](COc2ccc(-c3ccc(C#N)cc3)cc2)NC1=O
45 to 50 | CC(c1ccccc1)N1Cc2cncn2C(c2cccc(Br)c2)C1=O (single isomer, unassigned; (+))
260 to 261 | O=C1c2ccccc2NC(c2ccc(=O)[nH]c2)N1c1ccc(F)c(C(F)(F)F)c1 (configuration not stated)
51 to 52 | COC(=O)CCc1cnoc1-c1ccc(Cl)cc1
83 | CCN(CC)C(=O)Oc1cc(-c2cccc(Cl)c2)nc2ccccc12
256 | Cc1cc(-c2ccc3ncc(N)nc3c2)cc(C)c1O
177 to 179 | Nc1nc2ccccc2c2c1nc(-c1ccccc1)n2OCc1ccccc1
190 | Clc1ccc2c(c1)N(c1ncnc3c(Cl)cccc13)CC2
145 to 146 | CCOC(=O)OCCn1nc(-c2cc(C(C)(C)C)c(O)c(C(C)(C)C)c2)c2ccc(C)nc21
160 | COc1ccc(S(=O)(=O)N2C(=O)C(c3ccccc3OC)(N3Cc4ccccc4C[C@H]3C(=O)N(C)C)c3cc(Cl)c(C)cc32)c(OC)c1 (some centres not stated)

The next lines start with the molecule.

Structure (SMILES) | melting point [°C]
Nc1ncccc1C(=O)NCC1CCN(CC2COc3ccccc3O2)CC1 (configuration not stated) | 104 to 106
CC#CCOc1cc(OCC#CCC)ncn1 | 67.4
O=C1c2c(Cl)cccc2-n2cnc(-c3nc(C4CCC4)no3)c2[C@@H]2CCCN12 | 183 to 185
CCOC(=O)COc1cc(-c2cc3nccnc3[nH]2)ccc1OC | 183 to 184
NC(=O)c1ncn2c(-c3cccnc3)ccnc12 | > 260
COc1ccc(NC(=O)/C=C/c2ccc(C(C)(C)C)cc2)cc1OC | 115 to 116
Clc1c(OCC2CO2)cccc1N1CCCCC1 (configuration not stated) | 55 to 57
O=C1CCC(N2C(=O)c3cccc(CNC(=O)c4cc(Cl)cnc4Cl)c3C2=O)C(=O)N1 (configuration not stated) | > 260
CSc1cc(C)nc(SC)c1NC(=O)CSc1nc2cccc(C(F)(F)F)c2o1 | 207 to 209
O=C(Nc1cccc(CC(=O)OCc2ccccc2)c1)NC1C(=O)N(CC(=O)N2CCCC2)c2ccccc2N(c2ccccc2F)C1=O (configuration not stated) | 104 to 106
NC(=O)c1ncn(C2OC(COC(=O)c3ccccc3)C(O)C2O)n1 (configuration not stated) | 182 to 184
CCN=C(N)Nc1cnn(C(C)CCC(=N)NNC(C)=O)n1 (configuration not stated) | 136 to 138
O=C(OCC1CCCCC1)c1ncn2c1[C@@H]1CCCN1C(=O)c1c(Cl)cccc1-2 | 123 to 124
O=C(NCC1CCCCN1)c1cc(O)ccc1OCC(F)(F)F (configuration not stated) | 134 to 137
C=CCON=C(C(=O)OCC)c1csc(N)n1 | 102 to 104
CC(C)C1(Br)Cc2cc(OCC(=O)O)c(Cl)c(Cl)c2C1=O (configuration not stated) | 150 to 153
Cc1nc(-c2cc(N)c(=O)[nH]c2C)cs1 | 192 to 194
CN(C)S(=O)(=O)c1ccc2c(c1)CNc1ccccc1O2 | 99 to 102
CCCCNc1c(C(=O)OCC)cnc2[nH]ncc12 | 181

Structure (SMILES) | melting point [°C]
CCOC(=O)c1cc2cc(C(F)(F)F)ccc2[nH]1 | 134 to 137
C/C(=C(\C#N)C(N)=S)N1CCCN(c2ccccc2Cl)CC1 | 123 to 124
O=C(O)c1cc(S(=O)(=O)N2CCCCC2)c(Cl)cc1Cl | 200 to 205
C[C@H]1COc2c(C#N)cccc2C(=O)N(C[C@@H](CCN)c2ccc(Cl)c(Cl)c2)C1 | 82 to 128
CCN(CC)CC(=O)Nc1ccc(NC(=O)CN(CC)CC)c2c1C(=O)c1ccccc1C2=O | 85 to 86
O=C(N[C@@H](CCCCNSc1ncccc1[N+](=O)[O-])C(=O)N[C@H](CCC(=O)N1c2ccccc2C[C@H]1C(=O)O)C(=O)O)OCc1ccc2c(c1)OCO2 | 100 to 110
CCCNC(=O)CCn1ccc(=O)c(O)c1 | 113 to 114
COc1ccc2nc(NCC3CCN(CC4COc5ccccc5O4)CC3)sc2c1 (configuration not stated) | 135
ClCc1nc(Cl)c2ccsc2n1 | 66 to 68
CC(C)(C)C(O)Cn1ccnc1 (configuration not stated) | 239 to 241
Cc1nnc2n1-c1sc(CCS(=O)(=O)N3CCN(C)CC3)cc1C(c1ccccc1Cl)=NC2 | 148 to 150
O=c1[nH]c2c(Cl)ccc(Cl)c2c(=O)n1CCCN1CC=C(c2ccc(Cl)cc2)CC1 | 207 to 209
Cc1cc(Nc2cccc(O)c2)c2c(cnn2C)n1 | 264 to 265
CCOC(=O)[C@H](Cc1cccc(OS(=O)(=O)C(F)(F)F)c1)NC(=O)C(F)(F)F | 38 to 39
CN1CCCCc2cc(-c3cnc(N)nc3N)ccc21 | 206 to 207
COC(=O)c1nc(-c2ccc(Cl)c(OC)c2F)nc(O)c1OC | 177 to 179
CCCCCCCCCC(=O)Nc1cc(NC(=O)CCCCCCCCC)cc(C(=O)O)c1 | 208 to 209
CCCOc1ccc(NC=C(C(=O)OCC)C(=O)OCC)nc1C | 116 to 118
Cc1ccc(N(C)S(=O)(=O)c2cccs2)c2[nH]c(C3=NCC(CCO)S3)cc12 (configuration not stated) | 168 to 169

Structure (SMILES) | melting point [°C]
CC(Oc1ccc(Oc2ccc(C(F)(F)F)cc2)cc1)C(=O)N1CCCO1 (configuration not stated) | 105 to 107
COCCOc1ccc(OCC2(O)CN3CCC2CC3)cc1 (configuration not stated) | 93 to 95
O=C1NCCCCC1Cc1ccccc1 (configuration not stated) | 99 to 104
CCc1nn(CCO)c(CC)c1Cc1c(F)cccc1F | 70 to 71
CN(C)S(=O)(=O)c1ccc(N2CC(CO)OC2=O)cc1 (configuration not stated) | 174 to 176
O=C(O)CCc1c(C=C2C(=O)Nc3ccc(Cl)cc32)[nH]c2c1CCCC2 | 370 to 384
CC(Oc1ccc(Cl)c(Cl)c1)c1ccnc2ncnn12 (configuration not stated) | 146 to 149
Cn1c(C(F)(F)F)cc(=O)n(-c2cc(OC(=O)NCC3CCCCC3)c(Cl)cc2F)c1=O | 132 to 135
CCOC(=O)c1[nH]c2cc3[nH]c(C)c(C(=O)OC)c3c(C)c2c1C | 247 to 250
COc1ccc(-c2cc(=S)n(C)c(=O)[nH]2)cc1OC | 247 to 249
CC(C)(C)c1ccc(-c2nn(-c3ccc(F)cc3F)c3c2C2CCC3C2)cc1 (configuration not stated) | 130 to 132
CCOC(=O)c1ccsc1Nc1ccc(F)cc1[N+](=O)[O-] | 125
CC(C)OC(=O)N1CCC(c2nc3ccc(-c4ccc(C(N)=O)c(F)c4)cc3o2)CC1 | 178 to 181
CCC(CC)C(=C(C#N)c1nc[nH]n1)S(=O)(=O)c1ccc(C)cc1 | 78 to 87
CCOC(=O)C(=CN(C)C)C(=O)c1cc2cc(F)c(F)c(F)c2nc1Cl | 118
CCOC(=O)COc1ccc2c(c1[N+](=O)[O-])C(=O)CC2 | 137 to 139
CCCCC(C(=O)NO)S(=O)(=O)c1ccc(OC)cc1 (configuration not stated) | 130
CC(=O)Oc1cccc(C(=O)N[C@H]2COC(C)(C)OC[C@@H]2OS(C)(=O)=O)c1C | 127 to 128
C=CCn1c(=O)n(-c2ccc3c(c2)OCO3)c2ncc([N+](=O)[O-])cc21 | 152 to 153
